Data taken from a melting point compilation (Tetko et al.; mined from patent text by program, amines drawn as free bases though some values may be those of a salt).

SMILES | melting point [°C]
CCOc1nn(-c2ccc(C(F)(F)F)cn2)cc1CCCOc1nn(-c2ccccc2)cc1CC(=O)O | 117 to 118
NS(=O)(=S)CCCc1ccccc1 (stereo not drawn) | 98 to 101
Nc1nc2cccnc2c2c1nc(CO)n2CC1(O)CCC1 | 244 to 246
CC(=O)Oc1ccc(CCCC2CC(=O)OC(=O)C2)cc1 | 55 to 57
CCOC(=O)c1c(C)nc(CCl)c(C(=O)OCC)c1-c1cccc([N+](=O)[O-])c1 | 76 to 78
COc1ccc(-c2cc3cc(F)c(F)cc3[nH]2)cc1NC(=S)Nc1cccnc1 | 128 to 130
CC(C)(C)c1cc(/C=C(\C#N)C(N)=S)cc(C(C)(C)C)c1O | 210
CNC1=NN(C(=O)c2cccc(C(F)(F)F)c2)C(C)(C)S1 | 111 to 115
O=C(NC1N=C(c2ccccc2)c2ccccc2NC1=O)c1c[nH]c2ccccc12 (racemic) | 265 to 268
Cc1ccc(C(=S)Nc2cc(F)ccc2F)cc1 | 118 to 121
COC(=O)C(=O)c1ccc(OCC(=O)c2ccc3ccccc3c2)cc1 | 120 to 121
COc1ccc(-c2cc(CO)c(=O)n(Cc3ccc(F)cc3)n2)cc1F | 127 to 130
CS(=O)(=O)c1ccc(-c2nc(C(F)(F)F)nc(Cl)c2-c2ccc(Cl)cc2)cc1 | 188 to 190
CCOC(=O)C(=O)N1CCC(Cc2ccc(F)cc2)CC1 | 72 to 74
O=C(Nc1ccc(NC(=O)OCCCl)nc1)OCCCl | 198
CCOc1cc(Cc2cnc(N)nc2N)cc(OCC)c1-c1ccc(CNCC(F)(F)F)cc1 | 146 to 149
CCOC(=O)c1cn2ccc(NC(=O)c3cc4cc(C(F)(F)F)ccc4n3Cc3cccc(F)c3)cc2n1 | 282 to 283
CS(=O)(=O)c1ccc(Oc2ccc(OC(F)(F)C(Cl)Cl)cc2)cc1 | 67 to 70
O=C(COC(=O)CCCc1ccc(N(CCCl)CCCl)cc1)NCCCC(O)(P(=O)(O)O)P(=O)(O)O | > 260
N#CCc1c[nH]c2ccc(CCS(N)(=O)=O)cc12 | 109 to 111
Cc1cc(=O)n(-c2cc(OC(C)C)c(Cl)cc2F)c(=O)n1C(F)F | 97 to 99
CCCCCC(O)C1C(=O)NC(C(=O)SCc2ccccc2)(C(O)C2C=CCCC2)C1(C)O (stereo not drawn) | 123
CCCCCCOc1ccc(F)c(C(N)=O)c1Cl | 66 to 68
CCN(CC)CCOc1ccc(Nc2ncc3cc(-c4c(Cl)cccc4Cl)c(=O)n(C)c3n2)cc1 | 141 to 143
CS(=O)c1ccc(C2=C(Br)C(=O)C(C)(C)O2)cc1 (stereo not drawn) | 117 to 118

SMILES | melting point [°C]
CC(=O)N[C@@H]1CC[C@@H](O)c2ccccc21 (relative stereo) | 120 to 127
CN(CCc1ccc2c(c1)OCO2)C(C)(C)CCC(C(N)=O)(c1ccccc1)c1ccccc1 | 165
CCCCCC(CCCCCO)NCc1cc2cc3c(cc2c2cc(OC)ccc12)OCO3 (stereo not drawn) | 122 to 124
CC(=O)n1c2ccccc2c2[nH]c(=O)c3nccn3c21 | 340
O=C1CCC(C(=O)O)(c2ccc(F)cc2)CC1 | 117 to 122
CC(C)(C)c1ccccc1N1CCN(C(=O)CCC#N)CC1 | 109 to 110
N#CCC(=O)c1nn(-c2ccccc2)c2c1Cc1ccccc1-2 | 189 to 190
O=C(O)c1cn(-c2ccc(F)cc2F)c2c(F)c(N3Cc4ccc(Cl)cc4C3)c(F)cc2c1=O | 242 to 247
Cc1ccc(S(=O)(=O)OC2CCCC2)cc1 | < 30
CCCCc1nc2cccc(C(=O)OCOC(=O)C(C)(C)C)c2n1Cc1ccc(-c2ccccc2-c2nnn[nH]2)cc1 | 102 to 105
CN(C)c1ncc([N+](=O)[O-])cc1Cl | 111 to 113
ClCn1cc(Cl)c(-c2cc(Cl)cc(Cl)c2)n1 | 88
COc1cc2c(Nc3ccc(Sc4nccn4C)c(Cl)c3)c(C#N)cnc2cc1N1CCC(N2CCN(C)CC2)CC1 | 235 to 237
CC(C)(C)OC(=O)Nc1cnc(Cl)cc1C(=O)O | 250
N#Cc1cccc(COc2ncc(F)c(NC(=O)NCc3ccccc3F)n2)c1 | 177 to 178
COC(=Cc1ccc(-c2cccc(N(C)C(=O)NCCc3ccccc3)c2)cc1)C(=O)O | 144
CC(C(N)=O)c1ccc(-c2ccc(F)cc2F)c(O)c1 (stereo not drawn) | 222 to 224
CCN(CC1CCCC1)c1nc2ccccc2cc1CN(Cc1cc(C(F)(F)F)cc(C(F)(F)F)c1)c1nnc(C)o1 | 126 to 127
Cn1ncnc1COc1nn2c(-c3ccccc3F)nnc2cc1-c1cccc(F)c1 | 204 to 206
CCON=C(C(N)=O)C(=O)OC | 68 to 71
CCOP(=O)(OCC)c1nc(Nc2ccccc2)nc(N2CCCC2)n1 | 150 to 151
Oc1ccc(OCCOc2ccccc2)cc1 | 156
O=C(Nc1ccc(Cl)cn1)c1ccc(OC(F)F)c2oc3ccccc3c12 | 155 to 157
CCc1nc2c(c(C)c(C)n3nnnc23)n1CCOCCN1CCCS1(=O)=O | 176 to 178
COC1=C(OC)C(=O)NC1=O | 126 to 127

SMILES | melting point [°C]
Brc1ccc2c(c1)-c1nc(-c3ccccc3)sc1CC2 | 85
NC(=O)c1ccc(NC(=NC(=O)c2cccc(Br)c2)NC(=O)c2ccccc2)cc1 | 282 to 283
CCOc1ccc(-c2ccc3c(c2)C=C(C(=O)Nc2ccc(CN(C)C4CCOCC4)cc2)CCN3C=O)cc1 | 211 to 215
CNC(Cc1ccccc1)C(=O)N[C@@H](Cc1cccc2ccccc12)C(=O)O (stereo partly drawn) | 104 to 107
CC(C)COc1ccc(N)cc1C#N | 88 to 93
CN(C)CCc1cc2occc2c(=O)[nH]1 | 97.5 to 98
CC(C)n1nc(-c2cnc3[nH]cc(C(=O)N[C@H](C)C(=O)N4CC(C#N)C4)c3n2)c2ccc(Cl)cc21 | 204 to 208
CC(C)(C)c1ccc2c(c1)OC(C(F)(F)C(F)(F)F)C(C(=O)O)=C2 (stereo not drawn) | 171 to 174
CCOC(=O)C(F)(F)C(O)(CC)c1cc2n(c(=O)c1CO)Cc1cc3ccccc3nc1-2 (stereo not drawn) | 208 to 209
O=c1c2n[nH]c3ccc(Cl)cc3c-2nn1-c1ccccc1 | > 280
Cc1ccc(N)cc1/C=C/c1nc(C(C)C)cs1 | 60 to 61
CCOC(=O)C(Cc1ccc(-c2cccc(N(C)C(=O)Nc3ccc(N(C)C)cc3)c2)cc1)Nc1ccccc1C(=O)c1ccccc1 (stereo not drawn) | 75
O=S(=O)(CCCl)CCC(F)(F)C(F)(F)C(F)(F)C(F)(F)C(F)(F)C(F)(F)C(F)(F)C(F)(F)C(F)(F)C(F)(F)F | 147 to 148
COc1cc(NC(SC)=C(C#N)S(=O)(=O)c2ccc(Cl)cc2)cc(OC)c1 | 120 to 123
Cc1cccc(OCCO)c1 | 76 to 78
Cc1cccc(-c2nc3ccc(Cl)nn3c2-c2ccnc(N)c2)c1 | 247 to 248
C=CCc1cn2c(=O)c(C(=O)O)cnc2c2cc(OC)ccc12 | 207 to 210
O=P(O)(O)Cc1ccc(CP(=O)(O)O)cc1 | > 300
O=C(O)CCSC1c2ccc(-c3nnn[nH]3)cc2COc2ccc(OCc3ccc4ccccc4n3)cc21 (stereo not drawn) | 151 to 153
COc1ccc(CC#Cc2ccc3c(c2)c(=O)n(Cc2ccccc2)c2nncn32)cc1 | 267
Cc1oc(C2CC=CCC2)nc1CC(=O)O (stereo not drawn) | 86 to 87
O=Cc1cn(-c2ccccc2)nc1O | 196 to 197
Fc1ccc([C@@]2(Cn3nc[nH]c3=S)O[C@@H]2c2ccccc2C(F)(F)F)cc1F (relative stereo) | 143 to 146
COc1ccc(C2CNC(=O)C2)cc1OC (stereo not drawn) | 120
C#CCN(Cc1ccc2nc(C)[nH]c(=O)c2c1)c1ccc(C(=O)NC(C)(C#N)Cc2ccccc2)cc1 (stereo not drawn) | 208 to 209

SMILES | melting point [°C]
CCOC(=O)c1cc(-c2csc(-c3cccnc3)n2)[nH]n1 | 105 to 107
CCCCCCCCCCCCn1nnc(CN(Cc2ccccc2)C(=O)Nc2c(OC)cc(OC)cc2OC)n1 | 57 to 59
CCCCCCCCCCCCCCCCOc1ccc(OCC(=O)O)cc1 | 125 to 127
CC1(C)CCC(C)(C)c2cc(C#Cc3ccc(CN)cc3)ccc21 | 84 to 88
O=[N+]([O-])C=C1SCCN1Cc1cccnc1 | 96 to 100
CN1CCCc2cc(C(C)(C(=O)O)c3ccc4c(c3)CCCN4C)ccc21 | 155 to 157
CC1(C)COc2ccc(C(F)(F)F)cc2C(O)(c2ccccn2)C1 (stereo not drawn) | 116
O=c1cc2c(nn1-c1ccc(Cl)cc1)-c1cc(Cl)ccc1S(=O)CC2 (stereo not drawn) | 239 to 241
CCc1nn2ccc3oc(C)cc3c2c1CO | 127 to 129
Cc1cc(O)c(CC(=O)OCCC(C)C)cc1O | 99
COC(=O)c1cccc2c(=O)c3cc(I)ccc3[nH]c12 | 224 to 226
CCCn1nnn(-c2cc(OC)c(C(F)(F)F)cc2Cl)c1=O | 82 to 83
c1ccc(Cc2ncc(-c3ccncc3)s2)cc1 | 46 to 47
O=C(NCC(C(=O)Nc1n[nH]c(=S)s1)c1ccccc1)OCc1ccccc1 (stereo not drawn) | 201 to 202
Cc1ccn(-c2ncc(C(=O)N3Cc4cccn4Cc4ccccc43)c(C(F)(F)F)n2)n1 | 202 to 204
O=C(c1ccc2nonc2c1)N1CC2C=CC1C2 (stereo not drawn) | 106 to 108
COCn1cc(C2=C(C#N)C(c3cccc4nonc34)c3c[nH]nc3N2)c2ccccc21 (stereo not drawn) | 200
CCCN(CCC)Cc1cnc(-c2ncn3c2CN(C)C(=O)c2cc(F)ccc2-3)o1 | 123 to 125
CS(=O)(=O)OCCN(CCCl)c1ccc([N+](=O)[O-])c(C(=O)NCCCO)c1[N+](=O)[O-] | 104 to 109
CO[C@@H]1C=C(S(=O)(=O)c2ccccc2)[C@@H](C(C)C)CC1 | 113
CCCNC(=O)C(C)(C)N=NC(C)(C)C(=O)NCCC | 65
COC(=O)Nc1nc2cc(C(c3ccc(F)cc3)n3ccnc3C)ccc2[nH]1 (stereo not drawn) | > 300
Cc1ccc2ccccc2c1COc1ccc(C(=O)NC[C@@H](C(=O)NO)N2CCN(S(C)(=O)=O)CC2)cc1 | 155
